How the values were obtained:
MRP4 (ABCC4) = biological target: T1, MRP4 (ABCC4) (Homo sapiens, UniProt O15439); experiment: TP_TRANSPORTER: inhibition of E217betaG uptake (E217betaG: 1 uM, MTX: 300 uM) in membrane vesicles from MRP4-expressing Sf9 cells; assay type: functional, cell membranes, Membrane vesicle; parameters: scale not given: the % may be the effect or the level left; conditions: probe E217betaG (estradiol 17beta-glucuronide), read-out: Activity
T1 sequence (O15439 whole entry): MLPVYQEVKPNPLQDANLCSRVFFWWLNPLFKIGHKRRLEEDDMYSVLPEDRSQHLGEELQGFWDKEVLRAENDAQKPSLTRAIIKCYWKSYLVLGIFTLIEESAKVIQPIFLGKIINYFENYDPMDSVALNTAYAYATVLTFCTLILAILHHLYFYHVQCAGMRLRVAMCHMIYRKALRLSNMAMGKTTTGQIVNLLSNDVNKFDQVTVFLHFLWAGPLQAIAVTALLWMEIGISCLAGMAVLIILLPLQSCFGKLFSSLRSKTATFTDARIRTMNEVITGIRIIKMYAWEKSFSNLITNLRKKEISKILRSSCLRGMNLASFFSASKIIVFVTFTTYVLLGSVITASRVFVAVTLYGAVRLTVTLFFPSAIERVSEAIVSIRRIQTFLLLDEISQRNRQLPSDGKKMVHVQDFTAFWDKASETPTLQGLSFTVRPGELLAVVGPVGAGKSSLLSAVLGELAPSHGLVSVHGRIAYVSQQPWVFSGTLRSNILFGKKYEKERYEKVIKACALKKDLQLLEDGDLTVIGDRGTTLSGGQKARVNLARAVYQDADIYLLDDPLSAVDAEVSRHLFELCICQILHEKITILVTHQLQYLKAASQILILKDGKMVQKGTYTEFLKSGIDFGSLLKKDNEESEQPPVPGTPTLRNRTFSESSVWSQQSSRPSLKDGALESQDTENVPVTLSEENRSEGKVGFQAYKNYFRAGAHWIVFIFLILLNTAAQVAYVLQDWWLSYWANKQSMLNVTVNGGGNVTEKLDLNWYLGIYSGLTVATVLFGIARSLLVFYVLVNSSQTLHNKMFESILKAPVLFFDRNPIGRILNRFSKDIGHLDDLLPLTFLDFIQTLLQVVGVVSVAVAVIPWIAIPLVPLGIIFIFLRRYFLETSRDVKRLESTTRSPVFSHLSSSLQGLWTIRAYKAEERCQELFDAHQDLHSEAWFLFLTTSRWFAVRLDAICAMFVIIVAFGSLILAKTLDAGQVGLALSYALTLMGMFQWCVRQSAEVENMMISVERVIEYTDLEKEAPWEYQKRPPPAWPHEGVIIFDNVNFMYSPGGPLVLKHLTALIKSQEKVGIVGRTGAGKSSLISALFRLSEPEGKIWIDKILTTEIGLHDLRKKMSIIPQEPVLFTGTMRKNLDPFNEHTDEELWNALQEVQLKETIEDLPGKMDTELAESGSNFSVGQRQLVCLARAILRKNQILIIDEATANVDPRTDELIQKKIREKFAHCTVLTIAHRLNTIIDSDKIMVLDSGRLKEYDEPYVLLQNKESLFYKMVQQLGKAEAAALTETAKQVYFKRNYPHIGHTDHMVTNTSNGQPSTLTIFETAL

[1] = biological target: T2, ATP-binding cassette sub-family C member 4 (Homo sapiens, UniProt O15439); experiment: TP_TRANSPORTER: efflux in MRP4-expressing NIH3T3 cells; assay type: functional, cell-based; conditions: mouse
T2 sequence (O15439 whole entry): T1 sequence (O15439 whole entry)

[2] = biological target: T2, ATP-binding cassette sub-family C member 4; experiment: TP_TRANSPORTER: inhibition of E217betaG uptake (E217betaG: 1 uM, cGMP: 300 uM) in membrane vesicles from MRP4-expressing Sf9 cells; assay type: functional, cell membranes, Membrane vesicle; parameters: scale not given: the % may be the effect or the level left; conditions: sf9, 300 µM
[3] = substrate: C[C@]12CC[C@@H]3c4ccc(O)cc4CC[C@H]3[C@@H]1CC[C@@H]2O[C@@H]1O[C@H](C(=O)O)[C@@H](O)[C@H](O)[C@H]1O; experiment: (§1) TP_TRANSPORTER: uptake in membrane vesicles from MRP4-expressing Sf9 cells; assay type: functional, cell membranes, Membrane vesicle
[4] = substrate: [H][C@@]12COP(=O)(O)O[C@@]1([H])[C@@H](O)[C@H](n1cnc3c(=O)[nH]c(N)nc31)O2; experiment: as §1; assay type: functional, cell membranes, Membrane vesicle

## CN(Cc1cnc2nc(N)nc(N)c2n1)c1ccc(C(=O)N[C@@H](CCC(=O)O)C(=O)O)cc1 [METHOTREXATE]
MRP4 (ABCC4)
  activity at 300 µM: 40.3%

## Sc1ncnc2nc[nH]c12 [MERCAPTOPURINE ANHYDROUS]
[1]
  Activity: substrate [+]

## Nc1nc2c(ncn2[C@@H]2O[C@@H]3COP(=O)(O)O[C@H]3[C@H]2O)c(=O)[nH]1
[2]
  Activity: 16.2%

B1: ATP-binding cassette sub-family C member 4 (Homo sapiens) (protein)
chain: T1 sequence (O15439 whole entry)
[3]
  Km: 30.3 µM
[4]
  Km: 9.69 µM

— ChEMBL document CHEMBL2074175, “Transport of cyclic nucleotides and estradiol 17-beta-D-glucuronide by multidrug resistance protein 4. Resistance to 6-mercaptopurine and 6-thioguanine” (J Biol Chem, 2001)
